± gives the expanded uncertainty stated by the source.
Details: 298.15 K; 101.33 kPa; Liquid; Vibrating tube method

Compound | molar volume [m3/mol]
C1CCCCC1 [cyclohexane] | 0.0001088 ± 5e-08
C1CCOC1 [tetrahydrofuran] | 8.174e-05 ± 4e-08
ClC(Cl)Cl [trichloromethane] | 8.071e-05 ± 4e-08

— the NIST ThermoML archive (doi:10.1016/j.fluid.2010.06.007)
